# Measurements: ChEMBL document CHEMBL1151408 (J Nat Prod, 1983)
# Experiments:
# [1] = organism: Mus musculus; test: Increase in hepatic ethylmorphine N-demethylase activity in mouse; type: functional
# [2] = organism: Mus musculus; test: Increase in aryl hydrocarbon hydroxylase activity in mouse; type: functional
smiles,measurement,setting,value
CO[C@H]1/C=C/O[C@@]2(C)Oc3c(C)c(O)c4c(O)c(c(/C=N/N5CCN(C)CC5)c(O)c4c3C2=O)NC(=O)/C(C)=C\C=C\[C@H](C)[C@H](O)[C@@H](C)[C@@H](O)[C@@H](C)[C@H](OC(C)=O)[C@@H]1C [RIFAMPIN],Activity,[1],85%
same,Activity,[2],174%
